Data on 1 compound can be found in patent publication US7906491B2 (Univisitair Medisch Centrum Utrecht, priority 2002, dated 2011).

In one test the test system is PKAII. In words: Relative affinity for PKAII (cAMP = 1), in vitro. In kind it is binding. The conditions noted are these: relative to cAMP = 1.
For the next test, the target named is T1, Epac (Homo sapiens, UniProt O95398).
T1 sequence (O95398 1-923): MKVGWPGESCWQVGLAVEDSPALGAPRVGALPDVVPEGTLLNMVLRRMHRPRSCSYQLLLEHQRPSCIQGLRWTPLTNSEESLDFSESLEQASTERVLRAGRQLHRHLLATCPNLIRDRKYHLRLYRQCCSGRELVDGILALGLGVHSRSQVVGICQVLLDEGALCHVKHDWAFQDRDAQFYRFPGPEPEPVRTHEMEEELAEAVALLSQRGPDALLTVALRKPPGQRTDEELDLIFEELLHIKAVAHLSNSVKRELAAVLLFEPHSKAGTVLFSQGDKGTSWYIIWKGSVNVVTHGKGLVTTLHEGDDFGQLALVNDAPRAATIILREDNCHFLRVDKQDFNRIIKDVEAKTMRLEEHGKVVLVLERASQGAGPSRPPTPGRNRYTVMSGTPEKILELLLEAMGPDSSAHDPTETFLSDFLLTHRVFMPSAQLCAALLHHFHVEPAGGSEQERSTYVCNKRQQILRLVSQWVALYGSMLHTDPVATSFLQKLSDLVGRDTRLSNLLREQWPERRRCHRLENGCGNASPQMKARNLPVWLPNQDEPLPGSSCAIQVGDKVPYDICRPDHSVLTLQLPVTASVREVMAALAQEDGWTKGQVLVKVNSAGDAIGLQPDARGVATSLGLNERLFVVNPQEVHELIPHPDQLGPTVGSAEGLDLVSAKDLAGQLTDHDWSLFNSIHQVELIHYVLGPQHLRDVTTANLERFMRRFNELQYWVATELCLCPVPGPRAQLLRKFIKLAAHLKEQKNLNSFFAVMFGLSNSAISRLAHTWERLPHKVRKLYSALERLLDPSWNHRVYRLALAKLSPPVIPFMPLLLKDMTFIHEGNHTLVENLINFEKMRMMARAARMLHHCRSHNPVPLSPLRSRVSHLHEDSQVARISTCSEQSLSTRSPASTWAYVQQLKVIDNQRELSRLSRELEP
The test is described as follows: Relative affinity for Epac (cAMP = 1), in vitro. In kind it is binding. The conditions noted are these: relative to cAMP = 1.

A further test has as its target T2, Epac1-ΔDEP1 (Homo sapiens, UniProt O95398).
T2 sequence (O95398 191-923 limits assumed): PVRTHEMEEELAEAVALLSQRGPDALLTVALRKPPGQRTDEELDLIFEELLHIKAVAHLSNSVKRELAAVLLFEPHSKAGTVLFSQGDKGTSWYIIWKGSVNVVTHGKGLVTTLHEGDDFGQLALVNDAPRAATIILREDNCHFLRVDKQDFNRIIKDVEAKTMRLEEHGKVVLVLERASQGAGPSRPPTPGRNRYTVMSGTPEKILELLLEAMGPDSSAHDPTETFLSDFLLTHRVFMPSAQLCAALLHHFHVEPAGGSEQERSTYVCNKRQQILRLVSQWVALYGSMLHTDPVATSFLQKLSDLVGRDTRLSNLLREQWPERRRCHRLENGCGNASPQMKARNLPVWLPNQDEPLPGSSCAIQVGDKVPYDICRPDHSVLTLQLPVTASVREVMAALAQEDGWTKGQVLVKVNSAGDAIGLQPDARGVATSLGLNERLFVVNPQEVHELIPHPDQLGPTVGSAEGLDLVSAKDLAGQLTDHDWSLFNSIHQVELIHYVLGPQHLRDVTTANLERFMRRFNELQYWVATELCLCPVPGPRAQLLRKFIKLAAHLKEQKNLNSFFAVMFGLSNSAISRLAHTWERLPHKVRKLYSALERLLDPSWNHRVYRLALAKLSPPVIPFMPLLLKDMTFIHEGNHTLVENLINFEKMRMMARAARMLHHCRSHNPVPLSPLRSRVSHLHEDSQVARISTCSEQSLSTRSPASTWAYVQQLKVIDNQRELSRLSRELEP
In words: In vitro GEF assay: Epac activity in the exchange reaction towards Rap (mantGDP-loaded Rap1b). As to Relative activity of Epac*: key: +++: activity comparible to I-007; ++: activity between I-007 and cAMP; +: activity comparible to cAMP; ±: activity less than cAMP. Type of test: biochemical. The protocol: In vitro GEF assays were performed as described (3,16). […] Buffer conditions were 50 mM Tris pH7.4, 150 mM NaCl, 5% glycerol, 5 mM DTE, 60 μM GTP. Reactions were carried out in 96-well plates and measured in a Cary Eclipse from Varian Inc., using the manufacturers software.

The test system of another test is CREB. The test is described as follows: CREB phosphorylation (read-out for PKA) in NIH3T3-A14-Epac1 cells. In kind it is cell-based. The conditions noted are these: concentration as high as 100 μM. The protocol: Upper panel: NIH3T3-A14-Epac1 cells were treated for 15 min with 8-Br-cAMP, and cell lysates were analyzed for activation of Rap1 and phosphorylation of CREB. Lower panel: NIH3T3-A14-Epac1 cells were treated in duplicate for 15 min with increasing concentrations of 8-pCPT-2′-O-Me-cAMP. Cells were lysed and equal amounts of cell lysate were incubated with precoupled GST-RalGDSRBD and Rap1 was assayed by immunoblotting with Rap1 antibody.
Therefore, 8-CPT-2′-O-Me-cAMP was tested in NIH3T3-A14-Epac1 cells for the activation of Epac, using Rap1 as a read-out, and of PKA, using phosphorylation of the common PKA substrate CREB 29 as a read-out.
Antibodies against phosphorylated CREB (directed against phosphorylated Serl33) were obtained from Cell Signalling (Beverly, Mass., USA), and antibodies against K-Rev/Rap1 and polyclonal anti-HA were obtained from Santa Cruz Biotechnology (Santa Cruz, Calif., USA). The following inhibitors and stimuli were used at concentrations indicated, unless stated otherwise: RGD peptide (100 μM) and H-89 (10 μM) was obtained from Biomol Research Laboratories Inc. (Plymouth Meeting, Pa., USA). 8-Br-cAMP (1 mM) was obtained from BIOLOG Life Science Institute (Bremen, Germany). TPA (12-O-tetradecanoylphorbol-13-acetate) was obtained from Sigma (Steinheim, Germany) and was used at a concentration of 100 ng/ml. […]

The next test deals with human pancreatic β-cells. The conditions noted are these: cited from earlier work.

With `CO[C@@H]1[C@@H]2OP(=O)(O)OC[C@H]2O[C@H]1n1c(Sc2ccc(Cl)cc2)nc2c(N)ncnc21` [Compound I-007, 8-(4-chloro-phenylthio)-2′-O-methyladenosine-3′,5′-cyclic monophosphate], the “Relative affinity CAMP = 1 PKAII” value in the test with PKAII is listed as 0.003. The “Relative affinity CAMP = 1 Epac” value at Epac came to 4.6. In addition, the “maximal activity of Epac1 compared to cAMP” value at Epac1-ΔDEP1 (in vitro) is “three-fold higher”. Further, at Epac1-ΔDEP1 (in vitro in the exchange reaction towards Rap), the “Relative activity of Epac*” value is on record as “+++”. The EC50 at Epac1-ΔDEP1 (in vitro, FIG. 4, read-out: Half-maximal activation of Epac1) was found to be 2200 nM. Further, in the test with CREB, the CREB phosphorylation result is given as “did not induce CREB phosphorylation”. Besides, in the test with human pancreatic β-cells, the exocytosis entry is “induces exocytosis” and the “mobilization of Ca2+ from intracellular Ca2+ stores via Epac-mediated CICR” value is reported as “can induce mobilization of Ca^2+”.
